Measured values published in article PMC2996101 (Journal of natural products, 2009).

Columns and labels:
12-hLO [1] = conditions: read-out: previous IC50 12-hLO; previous work without Triton X100 ref 9; cited from earlier work
[2] = tested on: human lung adenocarcinoma cells over human leukemic lymphoid cells; test: Soft agar disk diffusion assay; assay type: cell-based; conditions: Table S4
15-hLO = conditions: read-out: previous IC50 15-hLO; previous work without Triton X100 ref 9; cited from earlier work
[3] = biological target: T1, human 5-lipoxygenase (5-hLO) (Homo sapiens, UniProt P09917); test: Lipoxygenase assay, 5-hLO; conditions: ratio of IC50 values
T1 sequence (P09917 1-674): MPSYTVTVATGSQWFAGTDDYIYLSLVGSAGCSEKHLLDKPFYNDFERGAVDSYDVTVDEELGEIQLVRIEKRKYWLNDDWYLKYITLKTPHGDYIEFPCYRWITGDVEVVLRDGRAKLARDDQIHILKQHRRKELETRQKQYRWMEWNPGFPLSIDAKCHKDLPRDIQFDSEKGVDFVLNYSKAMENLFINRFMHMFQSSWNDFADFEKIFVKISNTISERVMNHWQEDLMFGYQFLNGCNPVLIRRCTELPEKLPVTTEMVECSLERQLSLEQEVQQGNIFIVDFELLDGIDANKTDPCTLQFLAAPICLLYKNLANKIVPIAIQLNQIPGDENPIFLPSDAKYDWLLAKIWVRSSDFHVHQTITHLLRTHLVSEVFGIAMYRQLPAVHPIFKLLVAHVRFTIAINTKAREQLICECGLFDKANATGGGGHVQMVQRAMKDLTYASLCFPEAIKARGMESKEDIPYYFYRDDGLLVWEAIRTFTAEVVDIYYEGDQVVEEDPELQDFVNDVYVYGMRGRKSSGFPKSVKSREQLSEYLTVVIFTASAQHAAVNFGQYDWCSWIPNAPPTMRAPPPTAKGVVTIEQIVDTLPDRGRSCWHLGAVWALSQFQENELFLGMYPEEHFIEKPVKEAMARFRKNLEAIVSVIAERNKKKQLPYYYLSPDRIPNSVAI

12-hLO [4] = conditions: data from literature ref 20; cited from earlier work

SMILES	IC50 (12-hLO [1]) [nM]	selectivity against solid tumor cells [2]	IC50 (15-hLO) [nM]	12-hLO/5-hLO selectivity ratio [3]	15-hLO/5-hLO selectivity ratio [3]	12-hLO activity (12-hLO [4])
CC1(C)CCC[C@]2(C)[C@H]3C=C4C=C(O)C(=O)C=C4O[C@@]3(C)CC[C@@H]12 [Compound 1, puupehenone]	8300	modest selectivity	800	32	9	
CC1=C(CC/C(C)=C/CC/C(C)=C/Cc2cc(O)ccc2O)C(C)(C)CCC1 [Compound 9, jaspaquinol]	4500		300	> 111	42	
CC1(C)CCC[C@]2(C)[C@H]3C=C4C(=CC(=O)[C@@H]4O)O[C@@]3(C)CC[C@@H]12 [Compound 3, 20-hydroxyhaterumadienone]				~ 3	~ 3	
C[C@@H](c1cc2ccccc2s1)N(O)C(N)=O [Compound 13, zileuton]						Active ^*, ^**
CC1(C)CCC[C@]2(C)C3=CC4=CC(=O)C(=O)C=C4O[C@@]3(C)CC[C@@H]12 [Compound 5, puupehedione]				4		
